Measured values: US12180193B2, “Accelerating fibrosarcoma protein degrading compounds and associated methods of use” (Arvinas Operations, Inc., priority 2020, dated 2024)

Key:
[1] = target: T1, BRAF V600E (Homo sapiens, UniProt P15056, V600E); assay: Cellular assay of target protein degradation, T-Rex 293 cells stably transfected with HA-BRAF_V600E (HA immunofluorescence, high content imaging); assay type: cell-based; settings: T-Rex 293 HA-BRAF V600E; for DC50: half maximal degradation, read-out: BRaf V600E DC50; for Dmax: maximum degradation observed
T1 construct: expressed in transfected cells
T1 sequence (P15056 whole entry V600E): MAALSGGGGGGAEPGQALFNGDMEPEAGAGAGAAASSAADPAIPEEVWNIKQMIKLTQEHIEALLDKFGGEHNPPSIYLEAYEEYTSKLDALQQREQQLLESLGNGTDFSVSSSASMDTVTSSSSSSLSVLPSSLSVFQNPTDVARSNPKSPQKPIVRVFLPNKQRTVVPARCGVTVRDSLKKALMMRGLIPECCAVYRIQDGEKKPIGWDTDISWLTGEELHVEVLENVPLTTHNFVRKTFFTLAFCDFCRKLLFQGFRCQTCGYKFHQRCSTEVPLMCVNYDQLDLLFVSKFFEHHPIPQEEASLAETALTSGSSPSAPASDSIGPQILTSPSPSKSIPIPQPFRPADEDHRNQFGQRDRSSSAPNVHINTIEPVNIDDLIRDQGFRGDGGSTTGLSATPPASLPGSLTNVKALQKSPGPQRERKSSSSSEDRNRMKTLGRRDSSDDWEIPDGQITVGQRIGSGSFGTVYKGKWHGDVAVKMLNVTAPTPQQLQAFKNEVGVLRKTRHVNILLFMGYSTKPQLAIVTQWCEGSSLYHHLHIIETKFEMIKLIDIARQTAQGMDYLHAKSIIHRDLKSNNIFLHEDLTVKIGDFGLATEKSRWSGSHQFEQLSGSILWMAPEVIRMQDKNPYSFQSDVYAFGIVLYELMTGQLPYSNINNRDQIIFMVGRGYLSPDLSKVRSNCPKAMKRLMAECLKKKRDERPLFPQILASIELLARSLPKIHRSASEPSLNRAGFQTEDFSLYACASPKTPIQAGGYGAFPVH
How it was run: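 24 h compound exposure, 1 μM–0.1 nM final, 0.1% DMSO, 37 °C; cells induced with 1 ng/mL doxycycline. PFA fix, Triton permeabilize, anti-HA overnight 4 °C, Hoechst/phalloidin counterstain. Output: DC50, Dmax as % control.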

[2] = target: T2, BRAF G466V (Homo sapiens, UniProt P15056, G466V); assay: Cellular assay of target protein degradation, T-Rex 293 cells stably transfected with HA-BRAF G466V (HA immunofluorescence, high content imaging); assay type: cell-based; settings: T-Rex 293 HA-BRAF G466V; for DC50: half maximal degradation, read-out: BRaf G466V DC50; for Dmax: maximum degradation observed
T2 construct: expressed in transfected cells
T2 sequence (P15056 whole entry G466V): as the sequence (P15056 whole entry V600E) above, with G466V, E600V counted along it
How it was run: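 24 h compound, 30 nM–3 pM final, 0.1% DMSO, 37° C; HA-BRAF G466V induced with 0.75 ng/mL doxycycline. PFA fix, Triton perm, anti-HA + Alexa fluor secondary, Hoechst/phalloidin counterstain; imaging. DC50, Dmax (% of control).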

Compound	DC50 [1] [nM]	Dmax [1] [%]	DC50 [2] [nM]	Dmax [2] [%]
O=C1CCC(N2Cc3cc(C4CCN(CC5CCN(c6ccc(-c7cnc8[nH]cc(C(=O)c9c(F)ccc(NS(=O)(=O)N%10CCC(F)(F)C%10)c9F)c8c7)cc6)CC5)CC4)ccc3C2=O)C(=O)N1 (stereo not drawn) [Compound 190, N-[3-(5-{4-[4-({4-[2-(2,6-dioxopiperidin-3-yl)-1-oxo-2,3-dihydro-1H-isoindol-5-yl]piperidin-1-yl}methyl)piperidin-1-yl]phenyl}-1H-pyrrolo[2,3-b]pyridine-3-carbonyl)-2,4-difluorophenyl]-3,3-difluoropyrrolidine-1-sulfonamide]	< 5	35 to 70	1 to 10	> 70
CCc1c(NS(=O)(=O)N2CC[C@@H](F)C2)ccc(F)c1C(=O)c1c[nH]c2ncc(-c3ccc(N4CCC(CN5CCC(c6ccc7c(c6)CN([C@H]6CCC(=O)NC6=O)C7=O)CC5)CC4)cc3)cc12 [Compound 203, (3R)—N-{3-[5-(4-{4-[(4-{2-[(3S)-2,6-dioxopiperidin-3-yl]-1-oxo-2,3-dihydro-1H-isoindol-5-yl}piperidin-1-yl)methyl]piperidin-1-yl}phenyl)-1H-pyrrolo[2,3-b]pyridine-3-carbonyl]-2-ethyl-4-fluorophenyl}-3-fluoropyrrolidine-1-sulfonamide]	< 5	35 to 70	< 1	35 to 70
CNc1cc(-c2cnc3[nH]cc(C(=O)c4c(F)ccc(NS(=O)(=O)N5CC[C@@H](F)C5)c4F)c3c2)cc(NC)c1N1CCC(CN2CCC(c3ccc4c(c3)CN([C@H]3CCC(=O)NC3=O)C4=O)CC2)CC1 [Compound 284, (3R)-N-{3-[5-(4-{4-[(4-{2-[(3S)-2,6-dioxopiperidin-3-yl]-1-oxo-2,3-dihydro-1H-isoindol-5-yl}piperidin-1-yl)methyl]piperidin-1-yl}-3,5-bis(methylamino)phenyl)-1H-pyrrolo[2,3-b]pyridine-3-carbonyl]-2,4-difluorophenyl}-3-fluoropyrrolidine-1-sulfonamide]	5 to 50	35 to 70	1 to 10	> 70
O=C1CC[C@H](N2Cc3cc(N4CCC(CN5CCN(c6ccc(-c7cnc8[nH]cc(C(=O)c9c(F)ccc(NS(=O)(=O)N%10CC[C@@H](F)C%10)c9F)c8c7)cc6)CC5)CC4)c(F)cc3C2=O)C(=O)N1 [Compound 40, (3R)-N-{3-[5-(4-{4-[(1-{2-[(3S)-2,6-dioxopiperidin-3-yl]-6-fluoro-1-oxo-2,3-dihydro-1H-isoindol-5-yl}piperidin-4-yl)methyl]piperazin-1-yl}phenyl)-1H-pyrrolo[2,3-b]pyridine-3-carbonyl]-2,4-difluorophenyl}-3-fluoropyrrolidine-1-sulfonamide]	5 to 50	35 to 70	1 to 10	35 to 70
CN(C1CC1)S(=O)(=O)Nc1ccc(F)c(C(=O)c2c[nH]c3ncc(-c4ccc(N5CCC(CN6CCC(c7ccc8c(c7)CN([C@H]7CCC(=O)NC7=O)C8=O)CC6)CC5)cc4)cc23)c1F [Compound 281, (3S)-3-(5-{1-[(1-{4-[3-(3-{[cyclopropyl(methyl)sulfamoyl]amino}-2,6-difluorobenzoyl)-1H-pyrrolo[2,3-b]pyridin-5-yl]phenyl}piperidin-4-yl)methyl]piperidin-4-yl}-1-oxo-2,3-dihydro-1H-isoindol-2-yl) piperidine-2,6-dione]	5 to 50	35 to 70	1 to 10	35 to 70
O=C1CC[C@H](N2Cc3cc(C4CCN(CC5CCN(c6ccc(-c7cnc8[nH]cc(C(=O)c9c(F)ccc(NS(=O)(=O)N%10CCC(F)(F)C%10)c9F)c8c7)cc6)CC5)CC4)ccc3C2=O)C(=O)N1 [Compound 232, N-{3-[5-(4-{4-[(4-{2-[(3S)-2,6-dioxopiperidin-3-yl]-1-oxo-2,3-dihydro-1H-isoindol-5-yl}piperidin-1-yl)methyl]piperidin-1-yl}phenyl)-1H-pyrrolo[2,3-b]pyridine-3-carbonyl]-2,4-difluorophenyl}-3,3-difluoropyrrolidine-1-sulfonamide]	5 to 50	35 to 70	1 to 10	> 70
CCCS(=O)(=O)Nc1ccc(F)c(C(=O)c2c[nH]c3ncc(-c4ccc(N5CC6(CN(CC7CCN(c8cc9c(c(OC)c8)C(=O)N([C@H]8CCC(=O)NC8=O)C9)CC7)C6)C5)cc4)cc23)c1F [Compound 237, N-{3-[5-(4-{6-[(1-{2-[(3S)-2,6-dioxopiperidin-3-yl]-7-methoxy-1-oxo-2,3-dihydro-1H-isoindol-5-yl}piperidin-4-yl)methyl]-2,6-diazaspiro[3.3]heptan-2-yl}phenyl)-1H-pyrrolo[2,3-b]pyridine-3-carbonyl]-2,4-difluorophenyl}propane-1-sulfonamide]	5 to 50	35 to 70	< 1	> 70
O=C1CC[C@@H](N2Cc3cc(C4CCN(CC5CCN(c6ccc(-c7cnc8[nH]cc(C(=O)c9c(F)ccc(NS(=O)(=O)N%10CC[C@@H](F)C%10)c9F)c8c7)cc6)CC5)CC4)ccc3C2=O)C(=O)N1 [Compound 161, (3R)-N-{3-[5-(4-{4-[(4-{2-[(3R)-2,6-dioxopiperidin-3-yl]-1-oxo-2,3-dihydro-1H-isoindol-5-yl}lpiperidin-1-yl)methyl]piperidin-1-yl}phenyl)-1H-pyrrolo[2,3-b]pyridine-3-carbonyl]-2,4-difluorophenyl}-3-fluoropyrrolidine-1-sulfonamide]	5 to 50	35 to 70	< 1	> 70
O=C1CCC(N2Cc3cc(N4CCC(CN5CC6(CCN(c7ncc(-c8cnc9[nH]cc(C(=O)c%10c(F)ccc(NS(=O)(=O)N%11CC[C@@H](F)C%11)c%10F)c9c8)cn7)C6)C5)CC4)ccc3C2=O)C(=O)N1 (stereo partly drawn) [Compound 93, (3R)-N-[3-(5-{2-[2-({1-[2-(2,6-dioxopiperidin-3-yl)-1-oxo-2,3-dihydro-1H-isoindol-5-yl]piperidin-4-yl}lmethyl)-2,6-diazaspiro[3.4]octan-6-yl]pyrimidin-5-yl}-1H-pyrrolo[2,3-b]pyridine-3-carbonyl)-2,4-difluorophenyl]-3-fluoropyrrolidine-1-sulfonamide]	< 5	35 to 70	1 to 10	> 70
COc1cc(N2CC3(C2)CN(CC2CCN(c4ccc(-c5cnc6[nH]cc(C(=O)c7c(F)ccc(NS(=O)(=O)N8CC[C@@H](F)C8)c7F)c6c5)cc4)CC2)[C@H]3C)cc2c1C(=O)N(C1CCC(=O)NC1=O)C2 (stereo partly drawn) [Compound 12, (3R)-N-(3-{5-[4-(4-{[(1S)-6-[2-(2,6-dioxopiperidin-3-yl)-7-methoxy-1-oxo-2,3-dihydro-1H-isoindol-5-yl]-1-methyl-2,6-diazaspiro[3.3]heptan-2-yl]methyl}piperidin-1-yl)phenyl]-1H-pyrrolo[2,3-b]pyridine-3-carbonyl}-2,4-difluorophenyl)-3-fluoropyrrolidine-1-sulfonamide]	5 to 50	> 70	1 to 10	35 to 70
O=C1CCC(N2Cc3cc(N4CCN(CC5CCN(c6ccc(-c7cnc8[nH]cc(C(=O)c9c(F)ccc(NS(=O)(=O)N%10CC[C@@H](F)C%10)c9F)c8c7)cc6)CC5)CC(F)(F)C4)ccc3C2=O)C(=O)N1 (stereo partly drawn) [Compound 333, (3R)-N-[3-(5-{4-[4-({4-[2-(2,6-dioxopiperidin-3-yl)-1-oxo-2,3-dihydro-1H-isoindol-5-yl]-6,6-difluoro-1,4-diazepan-1-yl}methyl)piperidin-1-yl]phenyl}-1H-pyrrolo[2,3-b]pyridine-3-carbonyl)-2,4-difluorophenyl]-3-fluoropyrrolidine-1-sulfonamide]	> 500		1 to 10	< 35
O=C1CCC(N2Cc3cc(C4CCN(C[C@@H](O)Cc5ccc(-c6cnc7[nH]cc(C(=O)c8c(F)ccc(NS(=O)(=O)N9CC[C@@H](F)C9)c8F)c7c6)cc5)CC4)ccc3C2=O)C(=O)N1 (stereo partly drawn) [Compound 118, (3R)-N-[3-(5-{4-[(2S)-3-{4-[2-(2,6-dioxopiperidin-3-yl)-1-oxo-2,3-dihydro-1H-isoindol-5-yl]piperidin-1-yl}-2-hydroxypropyl]phenyl}-1H-pyrrolo[2,3-b]pyridine-3-carbonyl)-2,4-difluorophenyl]-3-fluoropyrrolidine-1-sulfonamide]	> 500	> 70	1 to 10	> 70
CN(CCN1CCN(c2ccc3c(c2)CN(C2CCC(=O)NC2=O)C3=O)CC1)[C@H]1C[C@@H](Oc2ccc(-c3cnc4[nH]cc(C(=O)c5c(F)ccc(NS(=O)(=O)N6CC[C@@H](F)C6)c5F)c4c3)cc2)C1 (stereo partly drawn) [Compound 182, (3R)-N-[2,4-difluoro-3-(5-{4-[(1s,3s)-3-[(2-{4-[2-(2,6-dioxopiperidin-3-yl)-1-oxo-2,3-dihydro-1H-isoindol-5-yl]piperazin-1-yl}ethyl)(methyl)amino]cyclobutoxy)phe-nyl}-1H-pyrrolo[2,3-b]pyridine-3-carbonyl)phenyl]-3-fluoropyrrolidine-1-sulfonamide]	50 to 500	35 to 70	1 to 10	> 70
